Like-named read-outs stand apart in the source and are kept apart here.
Experiments:
[1] = test system: asexual NF54 strain P. falciparum; assay: Plasmodium falciparum asexual blood stages proliferation assay with SYBR Green read-out; type: cell-based; conditions: for IC50 / anti-malarial activity (in words): compound alone, 10% human serum; for IC50: NF54 asexual blood stages, 72 hours, relative to DHA control, read-out: Anti-malarial activity IC50; for change of anti-malarial potency upon vanin inhibition: combined with 5 μM of vanin inhibitor CXP14.1-060; for anti-malarial activity (in words): highest concentration tested 100 μM
Experimental: The asexual stages of the NF54 strain P. falciparum were cultured as previously described, utilizing a shaker system with automated media change twice a day, parasites were kept in continuous culture within adapted Erlenmeyer flasks. Erythrocytes were refreshed every two or three days to adjust haematocrit to 5% and parasitaemia to 0.5%. Human erythrocytes (blood type A) were obtained from healthy blood donors, with no history of malaria. Culture media consisted of RPMI 1640 with HEPES [5.94 g/l, hypoxanthine [0.05 g/l], 10% (v/v) pooled human serum (blood type A) obtained similarly to erythrocytes, and 0,2% (w/v) sodium bicarbonate. Temperature was set to 37°C and a low oxygen gas mixture was constantly flushed over the culture maintaining a stable atmosphere of 3% O2, 4% CO2, and 93% N2.
A non-synchronous asexual NF54 strain P. falciparum culture was adjusted to a parasitaemia of 0.5-1% and a haematocrit of 1-5%. The compound dilution curves were prepared in dimethylsulphoxide (DMSO) from 100 mM to 10 μM at half/log step dilutions. The established anti-malarial dihydroartemisinin (DHA) was used as a positive control and diluted in DMSO from 1 mM to 100 nM at half/log step dilutions. The DMSO dilutions were 500-fold diluted in growth medium to yield a final DMSO concentration of 0.2% (v/v), and final compound concentrations from 200 μM to 20 nM (2 μM to 200 pM for DHA). Higher concentrations for the experimental compounds would not have been possible to achieve due to limitations in final DMSO concentration (0.1% v/v). Fifty μl of each compound dilution was combined with 50 μl of parasite culture in a black, clear-bottomed or entirely black 96-well plate. The outermost wells were filled with sterile water to prevent evaporation. DHA at a concentration of 1 μM and 0.1% DMSO (negative control) were used to determine the assay window. The 96-well plates were incubated for 72 hours in a candle jar at 37°C. Read-out was done using the DNA-marker SYBR Green as described previously. All assays were conducted at least in triplicate.
When combining two compounds in the same well the conditions were otherwise similar to the single compound assays, however the final DMSO concentration was 0.2%, which was also adjusted for the positive and negative controls and was not found to cause differences in results obtained with single compounds in assay containing 0.1% DMSO. The pantothenamide phenethyl-Pan was combined with a 10^−7 to 10^−5 M concentration curve of CXP14.1-060; the other pantothenamides were combined only with a 5 μM concentration of the same vanin inhibitor. The pantothenone vanin inhibitor RR8 was additionally combined with 20 μM, 6.3 μM, 2.0 μM, and 0.6 μM of pantothenate to explore potential competition for the same molecular target in P. falciparum. All assays were conducted at least in triplicate.
Statistical analyses were performed using GraphPad Prism 5. This includes producing inhibition curves, normalizing them to percentage of inhibition, calculation of IC50 values, correlation coefficients (Spearman non-parametric correlation), and Schild analyses. The IC50 is the concentration of the compound in question at which the compound reaches 50% inhibition relative to the DHA control curve, and is calculated using the interpolate function in GraphPad Prism 5.

P. falciparum = test system: P. falciparum; set-up: method as in PMID 23405100; conditions: 'aged' medium; cited from earlier work
[2] = biological target: T1, vanin enzymatic activity in human serum (Homo sapiens, UniProt O95497); assay: Vanin/pantetheinase activity assay with AMC substrate and fluorescence readout; type: biochemical
T1 sequence (O95497 22-491): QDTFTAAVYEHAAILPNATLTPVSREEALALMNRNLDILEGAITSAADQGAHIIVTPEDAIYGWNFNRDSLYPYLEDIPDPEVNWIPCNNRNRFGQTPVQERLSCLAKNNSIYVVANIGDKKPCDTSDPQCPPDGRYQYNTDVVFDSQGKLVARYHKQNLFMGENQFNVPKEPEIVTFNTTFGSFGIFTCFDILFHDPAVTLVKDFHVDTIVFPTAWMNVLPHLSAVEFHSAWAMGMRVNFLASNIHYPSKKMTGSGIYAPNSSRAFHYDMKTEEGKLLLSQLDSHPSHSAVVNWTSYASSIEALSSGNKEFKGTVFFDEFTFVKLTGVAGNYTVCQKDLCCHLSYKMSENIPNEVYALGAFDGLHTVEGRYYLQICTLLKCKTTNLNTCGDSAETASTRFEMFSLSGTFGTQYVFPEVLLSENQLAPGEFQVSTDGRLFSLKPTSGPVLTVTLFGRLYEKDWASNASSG

[3] = Plasmodium falciparum, NF54, 72 h

| Compound | IC50 [1, 3] | anti-malarial activity (in words) [1] | also measured |
| --- | --- | --- | --- |
| CC(C)(CO)[C@@H](O)C(=O)NCCC(=O)NCCc1ccccc1 [Phenethyl-Pan] | ≥ 50 µM |  | IC50 [1]: 98.2 µM; efficacy of parasite growth inhibition ([1]; in the presence of 10 μM of vanin inhibitor CXP14.1-060, comparable to DHA): full inhibition of parasite growth; IC50 (P. falciparum): 0.02 µM |
| CC(C)(CO)[C@@H](O)C(=O)NCCC(=O)CCc1ccccc1 [RR7] | 7.7 µM |  |  |
| CC(C)(CO)[C@@H](O)C(=O)NCCC(O)Cc1ccccc1 (stereo partly shown) [CXP14.1-034] | 24.1 µM |  |  |
| CCCCCCCNC(=O)CCNC(=O)[C@H](O)C(C)(C)CO [N7-Pan] | ≥ 50 µM |  | change of anti-malarial potency upon vanin inhibition [1]: increased; IC50 [1]: 79 µM |
| CCCCCNC(=O)CCNC(=O)[C@H](O)C(C)(C)CO [N5-Pan] | ≥ 50 µM |  | change of anti-malarial potency upon vanin inhibition [1]: increased; IC50 [1]: 45.1 µM |
| C=CCCC(=O)CCNC(=O)[C@H](O)C(C)(C)CO [RR2] | 2.6 µM |  |  |
| CC(C)(CO)[C@@H](O)C(=O)NCCS(=O)(=O)Nc1ccccc1 [SN 14,621] | 33.6 µM | moderate activity |  |
| CCCCCCCCCNC(=O)CCNC(=O)[C@H](O)C(C)(C)CO [N9-Pan] | ~15 µM |  | change of anti-malarial potency upon vanin inhibition [1]: not increased; IC50 [1]: 14.6 µM |
| CC(C)(CO)[C@@H](O)C(=O)NCCS(=O)(=O)Nc1ccc(Cl)cc1 [SN 14,622] | 7.4 µM | moderate activity |  |
| C[C@H]1[C@@H](O)O[C@@H]2O[C@@]3(C)CC[C@H]4[C@H](C)CC[C@@H]1[C@@]24OO3 [DHA, dihydroartemisinin] |  |  | change of anti-malarial potency upon vanin inhibition [1]: did not change; Anti-malarial IC50 (in words) ([1]; reference compound): low nanomolar range |
| CC(C)(C)c1ccc(CC(=O)CCNC(=O)[C@H](O)C(C)(C)CO)cc1 [CXP14.1-060] | > 100 µM | no anti-malarial activity | potency against human vanins (in words) [2]: nanomolar potency |
| CC(C)(CO)[C@@H](O)C(=O)NCCC(=O)CCCc1ccccc1 [RR8] | 2.2 µM |  | slope of the line in the Schild Plot ([1]; RR8 dilution curve combined with 20 μM, 6.3 μM, 2.0 μM and 0.6 μM of pantothenate): 1.087 ± 0.089; shift of IC50 on addition of pantothenate ([1]; addition of increasing concentrations of pantothenate): increase in the IC50 |
| CC(C)(CO)[C@@H](O)C(=O)NCCCO [Pantothenol] | > 100 µM | no anti-malarial activity |  |
| CC(C)(CO)[C@@H](O)C(=O)NCCC(=O)c1ccccc1 [SN 12,601] | 6.1 µM | moderate activity |  |
| CC(C)(CO)[C@@H](O)C(=O)N/C=C/C(=O)O [CJ-15,801] | > 100 µM | poor inhibitor of P. falciparum growth |  |
